The record followed here is US7595404B2, “Thiazolyl-substituted carbocyclic 1,3-diones as pesticidal agents” (Bayer CropScience AG, priority 2001, dated 2009).

Each structure is given as a SMILES string.

The subject of assay [1] is Botrytis cinerea. In words: Botrytis test (bean)/protective. Type of assay: in vivo. Particulars: protective, 500 g/ha, 2 days after inoculation. As to the method: Botrytis Test (Bean)/Protective
• Solvent: 24.5 parts by weight of acetone 24.5 parts by weight of dimethylacetamide • Emulsifier: 1 part by weight of alkyl-arylpolyglycol ether
To produce a suitable preparation of active compound, 1 part by weight of active compound is mixed with the stated amounts of solvent and emulsifier, and the concentrate is diluted with water to the desired concentration.
To test for protective activity, young plants are sprayed with the preparation of active compound at the stated application rate. After the spray coating has dried on, two small pieces of agar colonized by Botrytis cinerea are placed onto each leaf. The inoculated plants are placed in a dark chamber at about 20° C. and 100% relative atmospheric humidity.
2 days after the inoculation, the size of the infested areas on the leaves is evaluated. 0% means an efficacy which corresponds to that of the control, whereas an efficacy of 100% means that no infection is observed.

In assay [2] the test system is Septoria tritici. The assay can be described thus: In vitro test for the ED50 determination in microorganisms, Septoria tritici. Particulars: 50% inhibition of fungal growth, tested at 0.1, 1, 10 and 100 ppm, 22° C., 3-5 days, photometric 620 nm. The class given is cell-based.
The subject of assay [3] is Lolium. The assay can be described thus: Pre-emergence test, Lolium. Type of assay: in vivo. Particulars: pre-emergence/greenhouse; 60 g a.i./ha; after three weeks. As to the method:
(§1) • Solvent: 5 parts by weight of acetone • Emulsifier: 1 part by weight of alkylaryl polyglycol ether
(§2) To produce a suitable preparation of active compound, 1 part by weight of active compound is mixed with the stated amount of solvent, the stated amount of emulsifier is added and the concentrate is diluted with water to the desired concentration.
(§3) Seeds of the test plants are sown in normal soil. After about 24 hours, the soil is sprayed with the preparation of active compound such that the particular amounts of active compound desired are applied per unit area. The concentration of the spray liquor is chosen such that the particular amounts of active compound desired are applied in 1000 l of water/ha.
(§4) After three weeks, the degree of damage to the plants is rated in % damage in comparison to the development of the untreated control.
(§5) The figures denote: • 0% =no effect (like untreated control) • 100% =total destruction

The test system of assay [4] is Sphaerotheca fuliginea. The assay can be described thus: Sphaerotheca test (cucumber)/protective. Particulars: protective, 100 g/ha, 7 days after inoculation. The class given is in vivo. The method, then: (§6) Sphaerotheca Test (Cucumber)/Protective […] To produce a suitable preparation of active compound, 1 part by weight of active compound is mixed with the stated amounts of solvent and emulsifier, and the concentrate is diluted with water to the desired concentration. To test for protective activity, young plants are sprayed with the preparation of active compound at the stated application rate. After the spray coating has dried on, the plants are inoculated with an aqueous spore suspension of Sphaerotheca fuliginea. The plants are then placed in a greenhouse at about 23° C. and a relative atmospheric humidity of about 70%.

Assay [5] concerns Alopecurus. In words: Post-emergence test, Alopecurus. Type of assay: in vivo. As to conditions: post-emergence/greenhouse; 250 g a.i./ha; after three weeks. As to the method:
as §1, §2
(§7) Test plants of a height of 5-15 cm are sprayed with the preparation of active compound such that the particular amounts of active compound desired are applied per unit area. The concentration of the spray liquor is chosen such that the particular amounts of active compound desired are applied in 1000 l of water/ha.
as §4, §5

Assay [6] deals with caterpillars of the armyworm (Spodoptera frugiperda). The assay can be described thus: Spodoptera frugiperda test. The class given is in vivo. Particulars: 500 ppm, dipped cabbage leaves. As to the method: Spodoptera Frugiperda Test • Solvent: 7 parts by weight of dimethylformamide • Emulsifier: 2 parts by weight of alkylaryl polyglycol ether To produce a suitable preparation of active compound, 1 part by weight of active compound is mixed with the stated amounts of solvent and emulsifier, and the concentrate is diluted with emulsifier-containing water to the desired concentration. Cabbage leaves (Brassica oleracea) are treated by being dipped into the preparation of active compound of the desired concentration and are populated with caterpillars of the armyworm (Spodoptera frugiperda) while the leaves are still moist. After the desired period of time, the kill in % is determined. 100% means that all caterpillar larvae have been killed; 0% means that none of the caterpillar have been killed.

Assay [7] concerns Soya bean. The assay can be described thus: Pre-emergence test, Soya bean. The class given is in vivo. Particulars: pre-emergence/greenhouse; 60 g a.i./ha; after three weeks; crop. As to the method:
as §1, §2, §3, §4, §5

Assay [8] has as its system Wheat. The assay can be described thus: Pre-emergence test, Wheat. The class given is in vivo. Particulars: pre-emergence/greenhouse; 60 g a.i./ha; after three weeks; crop. The method, then: as §1, §2, §3, §4, §5
The test system of assay [9] is Pyricularia oryzae. The class given is cell-based. Particulars: 50% inhibition of fungal growth, tested at 0.1, 1, 10 and 100 ppm, 22° C., 3-5 days, photometric 620 nm.
In assay [10] the test system is apple scab pathogen Venturia inaequalis. In words: Venturia test (apple)/protective. The class given is in vivo. As to conditions: protective, 100 g/ha, 10 days after inoculation. The method, then: as §6, with “Venturia” for “Sphaerotheca”, “(Apple)/Protective” for “(Cucumber)/Protective”, “conidia” for “spore”, “the apple scab pathogen Venturia inaequalis and then remain in an incubation cabin at about 20° C. and 100% relative atmospheric humidity for 1 day.” for “Sphaerotheca fuliginea.”, “21°” for “23°”, “90%.” for “70%.”

Assay [11] has as its system Setaria. The assay can be described thus: Post-emergence test, Setaria. The class given is in vivo. As to conditions: post-emergence/greenhouse; 250 g a.i./ha; after three weeks. The method, then:
as §1, §2, §7, §4, §5

Assay [12] concerns Alternaria solani. The assay can be described thus: Alternaria test (tomato)/protective. Particulars: protective, 100 g/ha, 3 days after inoculation. Type of assay: in vivo. The method, then:
Alternaria Test (Tomato)/Protective […] To produce a suitable preparation of active compound, 1 part by weight of active compound is mixed with the stated amounts of solvent and emulsifier, and the concentrate is diluted with water to the desired concentration. To test for protective activity, young plants are sprayed with the preparation of active compound at the stated application rate. After the spray coating has dried on, the plants are inoculated with an aqueous spore suspension of Alternaria solani. The plants are then placed in an incubation cabin at about […] and 100% relative atmospheric humidity.

Assay [13] relates to Sinapis. The assay can be described thus: Post-emergence test, Sinapis. The class given is in vivo. Particulars: post-emergence/greenhouse; 250 g a.i./ha; after three weeks. The method, then:
as §1, §2, §7, §4, §5

Assay [14] has as its system Avena fatua. The assay can be described thus: Post-emergence test, Avena fatua. Type of assay: in vivo. As to conditions: post-emergence/greenhouse; 250 g a.i./ha; after three weeks. As to the method:
as §1, §2, §7, §4, §5

Assay [15] deals with Digitaria. In words: Pre-emergence test, Digitaria. As to conditions: pre-emergence/greenhouse; 60 g a.i./ha; after three weeks. Type of assay: in vivo. The method, then:
as §1, §2, §3, §4, §5

In assay [16] the test system is Matricaria. In words: Pre-emergence test, Matricaria. The class given is in vivo. Particulars: pre-emergence/greenhouse; 60 g a.i./ha; after three weeks. As to the method:
as §1, §2, §3, §4, §5

Assay [17] has as its system Ustilago avenae. In words: In vitro test for the ED50 determination in microorganisms, Ustilago avenae. The class given is cell-based. Particulars: 50% inhibition of fungal growth, tested at 0.1, 1, 10 and 100 ppm, 22° C., 3-5 days, photometric 620 nm.
The test system of assay [18] is Setaria. In words: Pre-emergence test, Setaria. The class given is in vivo. Particulars: pre-emergence/greenhouse; 60 g a.i./ha; after three weeks. The method, then:
as §1, §2, §3, §4, §5

As for `Cc1sc(-c2ccc(Cl)cc2)nc1C1=C(O)C2(CCCCC2)CC1=O` [Example I-1-a-2], the “% efficacy” value in assay [1] was determined as 92%; in [4], 100%; in [10] it was 91%; in assay [12], 93%. Moreover, the ED50 value in assay [2], in [9] and in assay [17] was less than 0.1 ppm in each case. Further, the “% damage, Lolium” value in assay [3] came out at 100%. Further, the “% damage, Alopecurus” value in [5] was 90%. In addition, the “Kill rate in % after 7 d” value in [6] was found to be 100%. Also, the “% damage, Soya bean” value in [7] was 0%. Besides, in [8], the “% damage, Wheat” value was found to be 0%. Further, the “% damage, Setaria” value in [11] and in [18] was 100% in each case. For the same molecule, the “% damage, Sinapis” value in assay [13] is listed as 80%. The “% damage, Avena fatua” value in [14] came out at 100%. In assay [15], the “% damage, Digitaria” value was found to be 100%. Moreover, the “% damage, Matricana” value in [16] amounted to 95%.
